Reference: paper PMC6969910, “Repurposing Dihydropyridines for Treatment of Helicobacter pylori Infection” (Pharmaceutics, 2019)
In brackets after ≈: the same amount, converted by molar mass. Like-named read-outs stand apart in the source and are kept apart here.

Assays:
[1] = molecular target: T1, H. pylori HsrA response regulator (Helicobacter pylori, UniProt O25684); parameters: method as in PMID 31383920; details: previous work; cited from earlier work
[2] = tested on: different strains of H. pylori; parameters: method as in PMID 31383920; details: including metronidazole- and clarithromycin-resistant strains; cited from earlier work
H. pylori ATCC 700392 = assay: MIC/MBC by broth microdilution, strain ATCC 700392; format: cell-based; details: Helicobacter pylori, ATCC700392; for MBC: ATCC 700392; for MIC: ATCC 700392, 72 h
[3] = tested on: H. pylori ATCC 43504 (metronidazole-resistant); assay: MIC/MBC by broth microdilution, strain ATCC 43504 (MTZ-R); format: cell-based; details: Helicobacter pylori; for MBC: ATCC43504; for MIC: ATCC43504, 72 h
[4] = tested on: H. pylori ATCC 700684 (clarithromycin resistant); assay: MIC/MBC by broth microdilution, strain ATCC 700684 (CLR-R); format: cell-based; details: Helicobacter pylori; for MBC: ATCC700684; for MIC: ATCC700684, 72 h
[5] = tested on: H. pylori strain ATCC 700684; assay: Time-kill kinetics assay; format: cell-based, Helicobacter pylori; details: 2 × MIC
Description: Time–kill curves for selected DHP drugs were determined using the H. pylori strain ATCC 700684 [17]. […] DMSO instead of drugs was included as control. Colony forming units (CFUs) were determined after 4, 8, and 24 h of drug exposition by culturing on Blood Agar Base No.2 supplemented with 8% defibrinated horse blood for 72 h under microaerobic conditions. Each determination was performed twice in triplicate and the results were presented as log10 CFU/mL versus incubation time. Statistical analysis was performed using the Mann–Whitney U test. A p value smaller than 0.05 was considered significant.

[6] = molecular target: T1, H. pylori HsrA response regulator; format: biochemical; details: EMSA; for Inhibition of the DNA binding activity of HsrA: 6 µM HsrA, 120 ng target promoter, 0.1 to 2 mM DHP; for Inhibition of HsrA activity at 100 μM: 100 μM drug, 6 μM HsrA
Description: The in vitro biological activity of the H. pylori HsrA response regulator and its potential inhibition by DHP drugs were assessed by electrophoretic mobility shift assay (EMSA) as previously described. Briefly, 120 ng of target DNA (promoter region of the H. pylori porGDAB operon) was mixed with 6 µM of recombinant HsrA [17] in the presence of increasing concentrations (0.1 to 2 mM) of selected DHP drugs. Mixtures of DNA and protein in a 20 μL reaction volume containing 10 mM bis-Tris (pH 7.5), 40 mM KCl, 100 mg/L BSA, 1 mM DTT and 5% glycerol were incubated at room temperature for 20 min and then separated by 6% native polyacrylamide gel electrophoresis. A 150 bp fragment of the Anabaena sp. PCC 7120 gene pkn22 was included as non-specific competitor DNA in all assays. EMSA gels were stained with SYBR Safe® (Thermo Fisher Scientific, Bothell, WA, USA) and analyzed using the Bio-Rad Gel Doc 2000 imaging system.

[7] = molecular target: T1, H. pylori HsrA response regulator; assay: biochemical; format: binding; details: for n (binding stoichiometry): absolute error 0.06; for ΔG: absolute error 0.2 kcal/mol; for ΔH: absolute error 0.4 kcal/mol
Description: Thermodynamic parameters of the molecular interaction between HsrA and its DHP-class inhibitors were analyzed by isothermal titration calorimetry (ITC) using an AutoiTC200 calorimeter (MicroCal, Malvern Instruments, Malvern, Worcestershire, UK). A solution of 20 µM of the protein in 50 mM Tris-HCl [pH 8], 150 mM NaCl, 10% glycerol, 1% DMSO was titrated with 200 µM of the corresponding ligand (DHP) dissolved in the same buffer at 25 °C. A total of 19 injections of 2 μL was added sequentially to the sample cell after 150 s spacing to ensure that the thermal power returned to the baseline before the next injection. Dissociation constants and binding enthalpies were calculated by non-linear least squares regression data analysis using the software package Origin 7.0 (OriginLab, Northampton, MA, USA).

[8] = tested on: H. pylori ATCC 700684 (CLR-R); assay: Checkerboard assay with clarithromycin, strain ATCC 700684; format: cell-based, Helicobacter pylori
Description: (§1) Antibacterial synergies of selected DHPs in combination with first-line anti-H. pylori antibiotics were tested by the checkerboard assay. Using 96-well flat-bottom microtiter plates, we assayed the antibacterial effect of the interaction of a range of 2-fold dilutions of clarithromycin or metronidazole with a range of 2-fold dilutions of each selected DHP. Serial dilutions of both antimicrobials (antibiotic and DHP) were firstly prepared using two different sterile microtiter plates, one compound was diluted along the rows in a first plate, and the other compound was diluted along the columns of a second plate. Then, both gradients were mixed in a third microtiter plate and inoculated with a freshly prepared bacterial suspension of H. pylori at 2 × 10^6 CFU/mL in BHI+FBS. Plates were incubated for 48 h at 37 °C under microaerobic conditions. […] The interaction between drugs was determined by calculating the fractional inhibitory concentration index (FICI) as: FICA (MICA in the presence of B/MICA alone) + FICB (MICB in the presence of A/MICB alone).

Mouse [9] = details: cited from earlier work
Mouse [10] = assay: Mouse oral median lethal dose (LD50); format: in vivo; details: oral dose 100 mg/kg/day versus mouse oral LD50
H. pylori strain PMSS1 = assay: H. pylori gastric colonization in C57BL/6 mice (bacterial counts and qPCR); format: in vivo, Helicobacter pylori (in C57BL/6 mice); details: PMSS1, oral 100 mg/kg/day marketed formulation + omeprazole 140 mg/kg/day, 7 days, vs infected non-treated
[11] = tested on: H. pylori essential response regulator HsrA; parameters: method as in PMID 31383920; details: binds native state of HsrA; cited from earlier work
[12] = tested on: H. pylori ATCC 43504 (MTZ-R); assay: Checkerboard assay with metronidazole, strain ATCC 43504; format: cell-based, Helicobacter pylori
Description: as §1

[13] = ITC, 25 °C, pH 8, relative error 40%, read-out: Kd

T1 sequence (O25684 entry or part of it): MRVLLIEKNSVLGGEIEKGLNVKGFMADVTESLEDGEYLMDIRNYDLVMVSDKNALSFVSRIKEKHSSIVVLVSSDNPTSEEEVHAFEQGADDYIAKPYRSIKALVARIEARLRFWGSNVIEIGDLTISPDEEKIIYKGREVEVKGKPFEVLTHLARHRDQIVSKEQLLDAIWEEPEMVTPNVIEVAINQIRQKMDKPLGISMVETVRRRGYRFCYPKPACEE

| Compound | Inhibition of the biological activity of HsrA [1] | Bactericidal activity against different strains of H. pylori [2] | MBC (H. pylori ATCC 700392) [mg/L] | MIC (H. pylori ATCC 700392) [mg/L] | MBC [3] [mg/L] | MIC [3] [mg/L] | MBC [4] [mg/L] | MIC [4] [mg/L] | Inhibition of the DNA binding activity of HsrA [6] | n (binding stoichiometry) ([7]; ITC, 25 °C, pH 8) | ΔG ([7]; ITC, 25 °C, pH 8) [kJ/mol] | ΔH ([7]; ITC, 25 °C, pH 8) [kJ/mol] | Mouse LD50 (mg/kg, oral) (Mouse [9]; ref PubChem) [mg/kg] | further results |
| --- | --- | --- | --- | --- | --- | --- | --- | --- | --- | --- | --- | --- | --- | --- |
| O=c1cc(-c2ccc(O)cc2)oc2cc(O)cc(O)c12 [apigenin] | noticeably inhibited | strong bactericidal activities |  |  |  |  |  |  |  |  |  |  |  |  |
| COC(=O)C1=C(C)NC(C)=C(C(=O)OC)C1c1ccccc1[N+](=O)[O-] [Nifedipine] |  |  | 8 (≈ 23.1 µM) | 8 (≈ 23.1 µM) | 16 (≈ 46.2 µM) | 16 (≈ 46.2 µM) | 8 (≈ 23.1 µM) | 8 (≈ 23.1 µM) |  |  |  |  |  | Decline in bacterial counts (time-kill kinetics) compared to other DHPs [5]: significantly slower |
| O=c1c(O)c(-c2ccc(O)cc2)oc2cc(O)cc(O)c12 [kaempferol] | noticeably inhibited | strong bactericidal activities |  |  |  |  |  |  |  |  |  |  |  |  |
| Cc1ncc([N+](=O)[O-])n1CCO [Metronidazole] |  |  | 2 (≈ 11.7 µM) | 1 (≈ 5.84 µM) | 128 (≈ 748 µM) | 64 (≈ 374 µM) | 2 (≈ 11.7 µM) | 1 (≈ 5.84 µM) |  |  |  |  |  |  |
| COC(=O)C1=C(C)NC(C)=C(C(=O)OC(C)(C)CN(C)CCC(c2ccccc2)c2ccccc2)C1c1cccc([N+](=O)[O-])c1 (centres unmarked) [Lercanidipine] |  |  | 8 (≈ 13.1 µM) | 8 (≈ 13.1 µM) | 64 (≈ 105 µM) | 32 (≈ 52.3 µM) | 8 (≈ 13.1 µM) | 8 (≈ 13.1 µM) | noticeably inhibited | 0.81 | -26.8 | -20.1 |  | Kd [7, 13]: 20 µM; FICantibiotic ([8]; clarithromycin in combination with DHP, ATCC 700684 (CLR-R)): 0.0625; Reduction of the MIC value of clarithromycin ([8]; in combination with DHP, ATCC 700684): up to 16 times; Mouse LD50 (mg/kg, oral) (Mouse [9]): 622 mg/kg |
| CCOC(=O)C1=C(C)NC(C)=C(C(=O)OC)C1c1cccc([N+](=O)[O-])c1 (centres unmarked) [Nitrendipine] |  |  | 8 (≈ 22.2 µM) | 8 (≈ 22.2 µM) | 16 (≈ 44.4 µM) | 16 (≈ 44.4 µM) | 8 (≈ 22.2 µM) | 8 (≈ 22.2 µM) | noticeably inhibited | 0.75 | -28.9 | -10.9 | 2540 | Treatment dose, times lower than LD50 (Mouse [10]): 25.4 times; Kd [7]: 9 µM; H. pylori gastric colonization, bacterial counts (CFU/mg of stomach) (H. pylori strain PMSS1): significantly reduced; H. pylori gastric colonization, qPCR (bacteria per 10,000 murine cells) (H. pylori strain PMSS1): significantly reduced |
| COc1ccc([C@@H]2CC(=O)c3c(O)cc(O)cc3O2)cc1O [hesperetin] | noticeably inhibited | strong bactericidal activities |  |  |  |  |  |  |  |  |  |  |  |  |
| COC(=O)C1=C(C)NC(C)=C(C(=O)OCCN(C)Cc2ccccc2)C1c1cccc([N+](=O)[O-])c1 (centres unmarked) [Nicardipine] |  |  | 8 (≈ 16.7 µM) | 8 (≈ 16.7 µM) | 8 (≈ 16.7 µM) | 8 (≈ 16.7 µM) | 8 (≈ 16.7 µM) | 8 (≈ 16.7 µM) | noticeably inhibited | 0.72 | -31.4 | -8.37 | 305 | Inhibition of HsrA activity at 100 μM [6]: partially inhibited; Kd [7, 13]: 3 µM; Decline in bacterial counts (time-kill kinetics) compared to other DHPs [5]: significantly faster; Killing effect after 4 h of exposition [5]: completely lethal; Effect on HsrA conformational stability (thermal shift) [11]: increased the protein conformational stability |
| COC(=O)C1=C(C)NC(C)=C(C(=O)OCC(C)C)C1c1ccccc1[N+](=O)[O-] (centres unmarked) [Nisoldipine] |  |  | 4 (≈ 10.3 µM) | 4 (≈ 10.3 µM) | 16 (≈ 41.2 µM) | 16 (≈ 41.2 µM) | 4 (≈ 10.3 µM) | 4 (≈ 10.3 µM) | noticeably inhibited | 0.70 | -28.5 | -9.2 | 411 | Inhibition of HsrA activity at 100 μM [6]: partially inhibited; Kd [7]: 11 µM; Decline in bacterial counts (time-kill kinetics) compared to other DHPs [5]: significantly faster; Killing effect after 4 h of exposition [5]: completely lethal |
| CC[C@H]1OC(=O)[C@H](C)[C@@H](O[C@H]2C[C@@](C)(OC)[C@@H](O)[C@H](C)O2)[C@H](C)[C@@H](O[C@@H]2O[C@H](C)C[C@H](N(C)C)[C@H]2O)[C@](C)(OC)C[C@@H](C)C(=O)[C@H](C)[C@@H](O)[C@]1(C)O [Clarithromycin] |  |  | ≤ 0.12 | ≤ 0.12 | ≤ 0.12 | ≤ 0.12 | 32 (≈ 42.8 µM) | 16 (≈ 21.4 µM) |  |  |  |  |  |  |
| COCCOC(=O)C1=C(C)NC(C)=C(C(=O)OC(C)C)C1c1cccc([N+](=O)[O-])c1 (centres unmarked) [Nimodipine] |  |  | 8 (≈ 19.1 µM) | 8 (≈ 19.1 µM) | 32 (≈ 76.5 µM) | 16 (≈ 38.2 µM) | 4 (≈ 9.56 µM) | 4 (≈ 9.56 µM) | noticeably inhibited | 0.71 | -30.5 | -8.79 | 940 | Treatment dose, times lower than LD50 (Mouse [10]): 9.4 times; Kd [7, 13]: 4.1 µM; Reduction of the MIC value of metronidazole ([12]; in combination with DHP, ATCC 43504): up to 8 times; FICantibiotic ([12]; metronidazole in combination with DHP, ATCC 43504 (MTZ-R)): 0.125; H. pylori gastric colonization, bacterial counts (CFU/mg of stomach) (H. pylori strain PMSS1): significantly reduced; H. pylori gastric colonization, qPCR (bacteria per 10,000 murine cells) (H. pylori strain PMSS1): significantly reduced |
| O=c1cc(-c2ccccc2)oc2cc(O)cc(O)c12 [chrysin] | noticeably inhibited | strong bactericidal activities |  |  |  |  |  |  |  |  |  |  |  |  |
